Publication PMC4099323, “Inhibition of Catalase by Tea Catechins in Free and Cellular State: A Biophysical Approach” (PLoS ONE, 2014)

Biological target: T1, Catalase (from bovine liver) (Bos taurus, UniProt P00432)
T1 construct: Catalase (from bovine liver); purchased Sigma-Aldrich, St. Louis, MO, USA; host or cells: bovine liver
T1 sequence (P00432 2-527 limits assumed): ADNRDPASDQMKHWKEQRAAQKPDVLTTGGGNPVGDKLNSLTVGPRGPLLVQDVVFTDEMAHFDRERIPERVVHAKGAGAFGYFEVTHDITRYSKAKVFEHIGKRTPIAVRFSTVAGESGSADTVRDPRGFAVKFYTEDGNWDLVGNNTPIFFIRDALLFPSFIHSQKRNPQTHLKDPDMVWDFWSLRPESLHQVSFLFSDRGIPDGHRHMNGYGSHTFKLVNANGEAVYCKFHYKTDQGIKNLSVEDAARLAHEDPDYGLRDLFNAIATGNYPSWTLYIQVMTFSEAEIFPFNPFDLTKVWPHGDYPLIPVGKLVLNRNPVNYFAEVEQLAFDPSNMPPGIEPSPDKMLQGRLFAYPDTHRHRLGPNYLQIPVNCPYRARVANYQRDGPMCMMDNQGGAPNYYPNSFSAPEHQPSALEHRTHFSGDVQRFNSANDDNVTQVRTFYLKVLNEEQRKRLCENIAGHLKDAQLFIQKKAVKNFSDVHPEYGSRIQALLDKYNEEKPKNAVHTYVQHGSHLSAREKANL
Experiment: Isothermal titration calorimetry of catechins binding to catalase
Conditions: 25°C
Procedure: The energetics of the binding of catechins to catalase was studied by ITC using a MicroCal ITC200, (Northampton, MA, USA). All solutions were degassed under vacuum (140 mbar, 10 min) on the MicroCal’s Thermovac unit to eliminate air bubble formation inside the calorimeter cell. Briefly, the calorimeter syringe was filled with a concentrated solution of catechins (10 µM each). Successive injections of this solution into 1 µM solution of catalase in the calorimeter cell were effected from the rotating syringe with constant stirring of the solution. The titration and analysis were performed through Origin 7 software provided with the unit.
ITC directly measures the heat released during a chemical reaction. ITC can reveal the stoichiometry, enthalpy free energy, and entropy changes that occur over the course of a reaction, [46]. Data obtained from the titration are presented by the series of peaks corresponding to each injection. Usually, this representation is transformed into the apparent heat change between two injections as a function of the titrant ratio by means of integration of power differential with regard to time. ITC has been used mainly to quantify interactions in various biochemical systems [47]–[49]. ITC has been used in the present study to determine binding affinity and other thermodynamic parameters of catechins-catalase interaction. Representative isothermal calorimetric heat profiles for the binding of catechins-catalase interaction, at physiological pH and 25°C are shown in Figure 4 (A–D). The data were corrected for the heat of dilution of catechins, which was determined in a separate set of experiments under identical conditions. The titration and analysis were performed using one-site binding model through Origin 7 software provided with the unit. From Figure 4 it is observed that the titration of catalase with all the four catechins yield negative heat deflections. EC, EGC, ECG, and EGCG bind to catalase with binding constants 2.13×10^5, 1.92×10^5, 6.36×10^5, and 8.19×10^5 M^−1, respectively, as determined by the following equation: ΔG = −RT ln K, where ΔG is the free energy, R and T are the gas constant and temperature, respectively, K is the binding constant.

[1] = ITC, directly extracted from the experiment

O=C(O[C@@H]1Cc2c(O)cc(O)cc2O[C@@H]1c1cc(O)c(O)c(O)c1)c1cc(O)c(O)c(O)c1 [EGCG, (−)-epigallocatechin gallate]
ΔG (ITC, calculated from the average values of ΔH): -7950 cal/mol | ΔH [1]: -450000 ± 22500 cal/mol | ΔS [1]: −1.48×10^3 cal/mol/K | Kd (one-site binding model, from ΔG = −RT ln K, read-out: binding constant with catalase (ITC) (converted)): 1220 nM
